According to patent US6887902B2, “Anti-inflammatory method using gamma-aminobutyric acid (GABA) analogs” (Warner-Lambert Company, priority 1997, dated 2005):

Tests used:
[1] = system: SCW (PG-PS) induced reactivation arthritis, ankle swelling; assay: streptococcal cell wall (SCW) induced reactivation arthritis assay; format: in vivo, Female Lewis rats
Experimental: The assay is a streptococcal cell wall (SCW) induced reactivation arthritis assay. Female Lewis rats were injected intra-articularly with 10 μL of 100 p fraction peptidoglyean polysaccharide (PG-PS) suspended in phosphate buffered saline (PBS). The contralateral joints were injected with PBS as control. Systemic challenge with 100 μg of PG-PS was given via the tail vein 21 days after the initial inoculation. The animals were dosed orally three times a day with pregabalin (3, 10, and 30 mg/kg) on a 12-hour cycle for 72 hours. The first dose was given 1 hour before the systemic challenge.
The volume of the ankles increased by about 0.5 mL within 72 hours. Pregabalin at 10 and 30 mg/kg dose dependently attenuated the increase in edema up to 40% during the 72-hour observation period.

[2] = system: kaolin and carrageenan knee joint arthritis; assay: acute experimental arthritis by kaolin and carrageenan in the knee joint, spinal infusion of pregabalin or its R-isomer; details: for PWL (thermal paw withdrawal latency) compared to baseline: 10 mg/mL infused into dorsal horn alone, before induction of arthritis; for thermal hyperalgesia (PWL) at 5.5 hours: 0.9 mg/mL infused into dorsal horn after development of arthritis; for PWL after infusion: 10 mg/mL infused after inflammation of the knee joint; for spontaneous pain (paw posture): both doses (0.9 and 10 mg/mL); for secondary thermal hyperalgesia (PWL) / abnormal paw posture indicative of spontaneous pain / reduction of knee joint swelling compared to aCSF rats: pre-treatment; for secondary thermal hyperalgesia (PWL): 10 mg/mL spinal infusion for 1.5 hours before kaolin and carrageenan, 4 hours post-injection; for abnormal paw posture indicative of spontaneous pain: spinal infusion before induction of arthritis; for reduction of knee joint swelling compared to aCSF rats: spinal infusion for 1.5 hours before induction of arthritis, P<0.05
Experimental: Acute experimental arthritis was induced in rats by injection of kaolin and carrageenan into the knee joint. […] Concomitant with the injury to the joint tissue, both peripheral and central sensitization occurs, which is manifested in the awake rat as hyperalgesia, which can be easily quantified by measuring a reduction in paw withdrawal latencies to a radiant heat source. Both pregabalin and its R-stereoisomer (R-(−)-3-IBG) were administered before inflammation was induced, and after the inflammation was developed.
Thirty-six male Sprague-Dawley rats (235-380 g) were anesthetized with sodium pentobarbital (Nembutal; 50 mg/kg^−1 i.p.). A microdialysis fiber (200 μm o.d., 45000 MW Cut-off, Hospal AN69) was coated with epoxy resin, except for a 2 mm section. A small midline incision was made in the back at the level of the last rib. The muscle was then removed from around the T12 vertebra and a hole drilled in both lateral aspects. The microdialysis fiber was then passed transversely through the dorsal horn of the spinal cord between lumbar segments L4-L6 so that the permeable 2 mm of the fiber lay in the dorsal horn. The microdialysis fiber was connected to PE20 tubing (Becton and Dickson) which was then tunneled under the skin to the nape of the neck. The fiber was stabilized with dental cement. Artificial cerebrospinal fluid (aCSF) was pumped through the tubing at a rate of 5 μL/min for 1 hour before the PE20 was sealed and the animals allowed to recover.
As a measure of thermal hyperalgesia, animals were tested for paw withdrawal to radiant heat. On the day following fiber placement, animals were housed in small lucite cubicles on an elevated glass plate. Radiant heat was applied to the plantar surface of the heel of the hindpaw until the rat lifted the paw. The time at which this occurred was considered the paw withdrawal latency (PWL). Both paws were tested independently at 5-minute intervals, for a total of 5 trials. A mean of these five readings was used as the PWL. […] PWL was measured for a final time 4 hours after arthritis induction. In the post-treatment group, the animals were tested before induction of arthritis in the knee joint (control), 4-hours post-induction, and 1.5 hours after of drug infusion, i.e. 5.5 hours after arthritis induction. A decrease in the PWL to radiant heat in an animal with knee joint inflammation is indicative of secondary hyperalgesia.
The circumference of the knee joint was also measured before injection of kaolin and carrageenan (control) using a flexible tape measure. The extent of guarding of the hindpaw was also noted after arthritis was induced. To quantify these changes, the animals were graded by a subjective pain rating scale (0-5), where: 0 is normal; 1 is curling of the toes; 2 is eversion of the paw; 3 is partial weight bearing; 4 is non-weight bearing and guarding; and 5 is avoidance of any contact with the hindlimb.
Rats were anesthetized briefly with sodium methohexital (Brevital; 60 mg/kg^−1 i.p.) after the control behavioral test (post-treatment group) or after infusion of the drug (pre-treatment group). The knee joint was then injected with 3% kaolin and 3% carrageenan suspended in sterile saline (0.1 mL; pH 7.4). The knee joint was then flexed manually until the rat awoke (approximately 5 minutes).
All GABA analogs were dissolved in an artificial cerebral spinal fluid solution (aCSF) (pH 7.4, adjusted by bubbling with 95% CO2/5% O2) and infused through the spinal cord at 5 μL/min^−1. The animals received either pregabalin, R-(−)-3-IBG, or aCSF.

**Q.** With `CC(C)C[C@H](CN)CC(=O)O` [Pregabalin, (S)-3-(aminomethyl)-5-methylhexanoic acid] as the molecule, how does the “attenuation of the increase in edema” value ([1]; 10 and 30 mg/kg oral, dose dependent, 72-hour observation period) read?
**A.** up to 40%

**Q.** And the “Swelling (delta edema, mL)” value ([1]; Day 22, pregabalin oral 3.0 mg/kg, vehicle group 0.20)?
**A.** 0.12 mL

**Q.** What about the “Swelling (delta edema, mL)” value ([1]; Day 22, pregabalin oral 10.0 mg/kg, vehicle group 0.20) of the same molecule?
**A.** 0.04 mL

**Q.** What about the “Swelling (delta edema, mL)” value ([1]; Day 22, pregabalin oral 30.0 mg/kg, vehicle group 0.20) of the same molecule?
**A.** 0.06 mL

**Q.** And the “Swelling (delta edema, mL)” value ([1]; Day 23, pregabalin oral 3.0 mg/kg, vehicle group 0.45)?
**A.** 0.38 mL

**Q.** What about the “Swelling (delta edema, mL)” value ([1]; Day 23, pregabalin oral 10.0 mg/kg, vehicle group 0.45) of the same molecule?
**A.** 0.25 mL

**Q.** What about the “Swelling (delta edema, mL)” value ([1]; Day 23, pregabalin oral 30.0 mg/kg, vehicle group 0.45) of the same molecule?
**A.** 0.20 mL

**Q.** What about the “Swelling (delta edema, mL)” value ([1]; Day 24, pregabalin oral 3.0 mg/kg, vehicle group 0.50) of the same molecule?
**A.** 0.50 mL

**Q.** What about the “Swelling (delta edema, mL)” value ([1]; Day 24, pregabalin oral 10.0 mg/kg, vehicle group 0.50) of the same molecule?
**A.** 0.31 mL

**Q.** What about the “Swelling (delta edema, mL)” value ([1]; Day 24, pregabalin oral 30.0 mg/kg, vehicle group 0.50) of the same molecule?
**A.** 0.21 mL

**Q.** And the “PWL (thermal paw withdrawal latency) compared to baseline” value [2]?
**A.** did not change PWL

**Q.** What about the “thermal hyperalgesia (PWL) at 5.5 hours” value ([2]; post-treatment) of the same molecule?
**A.** reduced the thermal hyperalgesia

**Q.** What about the PWL after infusion ([2]; post-treatment) of the same molecule?
**A.** return of the PWL to the control value

**Q.** What about the “spontaneous pain (paw posture)” value ([2]; post-treatment) of the same molecule?
**A.** spontaneous pain was also reduced

**Q.** What about the “comparison of the isomers in reducing thermal hyperalgesia” value ([2]; post-treatment, spinal infusion) of the same molecule?
**A.** more effective in reducing thermal hyperalgesia than its R-isomer

**Q.** And the “secondary thermal hyperalgesia (PWL)” value [2]?
**A.** no secondary thermal hyperalgesia was observed

**Q.** What about the “abnormal paw posture indicative of spontaneous pain” value [2] of the same molecule?
**A.** prevented the development of abnormal paw posture

**Q.** What about the “reduction of knee joint swelling compared to aCSF rats” value [2] of the same molecule?
**A.** approximately 30%

**Q.** `CC(C)C[C@@H](CN)CC(=O)O` [R-(−)-3-IBG] was tested. Which “PWL (thermal paw withdrawal latency) compared to baseline” value [2] did it give?
**A.** did not change PWL

**Q.** What about the “thermal hyperalgesia (PWL) at 5.5 hours” value ([2]; post-treatment) of the same molecule?
**A.** reduced the thermal hyperalgesia

**Q.** What about the PWL after infusion ([2]; post-treatment) of the same molecule?
**A.** return of the PWL to the control value

**Q.** What about the “spontaneous pain (paw posture)” value ([2]; post-treatment) of the same molecule?
**A.** spontaneous pain was also reduced

**Q.** And the “secondary thermal hyperalgesia (PWL)” value [2]?
**A.** no secondary thermal hyperalgesia was observed

**Q.** And the “abnormal paw posture indicative of spontaneous pain” value [2]?
**A.** prevented the development of abnormal paw posture

**Q.** And the “reduction of knee joint swelling compared to aCSF rats” value [2]?
**A.** approximately 30%
